# Earlier results, collected in patent US7235236B2, “Polynucleotide encoding human adenylylcyclase VI and uses thereof for enhancing cardiac function” (priority 1995, dated 2007).
# System: GRK
# Details: chronic reduction of beta1-AR activation
compound,measurement,value
CC(C)NCC(O)COc1ccc(COCCOC(C)C)cc1 (stereo not shown) [bisoprolol],GRK activity after chronic treatment,downregulation of GRK activity
